Results as given in ChEMBL document CHEMBL1136175, “Synthesis and antimycobacterial activity of capuramycin analogues. Part 2: acylated derivatives of capuramycin-related compounds” (Bioorg Med Chem Lett, 2003).
Converted amounts (≈) assume the structure as drawn.

What was measured:
[1] = tested on: Mycobacterium intracellulare; assay: Antimycobacterial activity against Mycobacterium intracellular ATCC 1954 E-3; format: functional
Mycobacterium kansasii = assay: Antimycobacterial activity against Mycobacterium kansasii ATCC 12478; format: functional
[2] = tested on: Mycolicibacterium smegmatis; assay: Antimycobacterial activity was determined against Mycobacterium smegmatis SANK75075; format: functional
[3] = target: T1, Phospho-N-acetylmuramoyl-pentapeptide-transferase (Escherichia coli K-12, UniProt P0A6W3); assay: Inhibitory concentration required against Translocase I
T1 sequence (P0A6W3 whole entry): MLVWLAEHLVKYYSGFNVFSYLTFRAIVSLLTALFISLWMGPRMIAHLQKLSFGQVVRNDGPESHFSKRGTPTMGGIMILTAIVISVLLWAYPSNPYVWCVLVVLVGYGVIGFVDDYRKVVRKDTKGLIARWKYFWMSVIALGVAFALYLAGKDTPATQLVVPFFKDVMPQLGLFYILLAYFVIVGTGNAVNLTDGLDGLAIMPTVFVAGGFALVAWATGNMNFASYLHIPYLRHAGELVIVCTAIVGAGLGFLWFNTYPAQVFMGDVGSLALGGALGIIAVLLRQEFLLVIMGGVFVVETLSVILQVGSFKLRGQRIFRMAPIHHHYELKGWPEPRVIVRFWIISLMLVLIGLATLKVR

Mycobacterium avium = assay: Antimycobacterial activity against Mycobacterium avium NIHJ1605; format: functional
[4] = target: T1, Phospho-N-acetylmuramoyl-pentapeptide-transferase; assay: Inhibitory concentration against translocase-I

| SMILES | MIC [1] [µg/mL] | MIC (Mycobacterium kansasii) [µg/mL] | MIC [2] [µg/mL] | IC50 [3] [nM] | MIC (Mycobacterium avium) [µg/mL] | IC50 [4] [nM] |
| --- | --- | --- | --- | --- | --- | --- |
| CCCCCCCO[C@@H]1[C@H](OC)[C@@H]([C@@H](O[C@H]2OC(C(=O)N[C@H]3CCC[C@@H](C)NC3=O)=C[C@H](O)[C@@H]2O)C(N)=O)O[C@H]1n1ccc(=O)[nH]c1=O | 4 (≈ 5.87 µM) | 32 (≈ 46.9 µM) | 100 (≈ 147 µM) | 80.7 | 32 (≈ 46.9 µM) | – |
| CCCCCCCC(=O)O[C@@H]1[C@H](OC)[C@@H]([C@@H](O[C@H]2OC(C(=O)N[C@H]3CCC[C@@H](C)NC3=O)=C[C@H](O)[C@@H]2O)C(N)=O)O[C@H]1n1ccc(=O)[nH]c1=O | 1 (≈ 1.41 µM) | 1 (≈ 1.41 µM) | 25 (≈ 35.2 µM) | 268 | 2 (≈ 2.82 µM) | – |
| CCCCCCCCCCCCCC(=O)O[C@@H]1[C@H](OC)[C@@H]([C@@H](O[C@H]2OC(C(=O)N[C@H]3CCC[C@@H](C)NC3=O)=C[C@H](O)[C@@H]2O)C(N)=O)O[C@H]1n1ccc(=O)[nH]c1=O | 0.125 (≈ 0.157 µM) | 4 (≈ 5.04 µM) | 3.13 (≈ 3.94 µM) | 5670 | < 0.063 | – |
| CCCCCCCCCCO[C@@H]1[C@H](OC)[C@@H]([C@@H](O[C@H]2OC(C(=O)N[C@H]3CCC[C@@H](C)NC3=O)=C[C@H](O)[C@@H]2O)C(N)=O)O[C@H]1n1ccc(=O)[nH]c1=O | 4 (≈ 5.53 µM) | > 32 | 25 (≈ 34.5 µM) | 884 | 1 (≈ 1.38 µM) | – |
| CCCCCCCCCCCCCCCC(=O)O[C@@H]1[C@H](OC)[C@@H]([C@@H](O[C@H]2OC(C(=O)Nc3ccccc3)=C[C@H](O)[C@@H]2O)C(N)=O)O[C@H]1n1ccc(=O)[nH]c1=O | 16 (≈ 20.7 µM) | 32 (≈ 41.4 µM) | 12.5 (≈ 16.2 µM) | > 3230 | 2 (≈ 2.59 µM) | – |
| CO[C@H]1[C@@H](O)[C@H](n2ccc(=O)[nH]c2=O)O[C@@H]1[C@@H](O[C@H]1OC(C(=O)Nc2ccccc2)=C[C@H](O)[C@@H]1O)C(N)=O | 4 (≈ 7.48 µM) | 8 (≈ 15 µM) | 6.25 (≈ 11.7 µM) | 12.2 | 16 (≈ 29.9 µM) | – |
| CO[C@H]1[C@@H](O)[C@H](n2ccc(=O)[nH]c2=O)O[C@@H]1[C@@H](O[C@H]1OC(C(=O)N[C@H]2CCCCNC2=O)=C[C@H](O)[C@@H]1O)C(N)=O [CAPURAMYCIN] | 8 (≈ 14 µM) | 8 (≈ 14 µM) | 12.5 (≈ 21.9 µM) | – | 8 (≈ 14 µM) | 17.6 |
| CCCCCCCCCCCCCCCC(=O)O[C@@H]1[C@H](OC)[C@@H]([C@@H](O[C@H]2OC(C(=O)N[C@H]3CCC[C@@H](C)NC3=O)=C[C@H](O)[C@@H]2O)C(N)=O)O[C@H]1n1ccc(=O)[nH]c1=O | 0.25 (≈ 0.304 µM) | 4 (≈ 4.87 µM) | 6.25 (≈ 7.6 µM) | 523 | < 0.063 | – |
| CCCCCCC(=O)O[C@@H]1[C@H](OC)[C@@H]([C@@H](O[C@H]2OC(C(=O)N[C@H]3CCC[C@@H](C)NC3=O)=C[C@H](O)[C@@H]2O)C(N)=O)O[C@H]1n1ccc(=O)[nH]c1=O | 1 (≈ 1.44 µM) | 2 (≈ 2.87 µM) | 50 (≈ 71.9 µM) | 64.7 | 4 (≈ 5.75 µM) | – |
| CCCCCCO[C@@H]1[C@H](OC)[C@@H]([C@@H](O[C@H]2OC(C(=O)N[C@H]3CCC[C@@H](C)NC3=O)=C[C@H](O)[C@@H]2O)C(N)=O)O[C@H]1n1ccc(=O)[nH]c1=O | 4 (≈ 5.99 µM) | 32 (≈ 47.9 µM) | 50 (≈ 74.9 µM) | 59.9 | 32 (≈ 47.9 µM) | – |
| CCCCCCCOC(=O)O[C@@H]1[C@H](OC)[C@@H]([C@@H](O[C@H]2OC(C(=O)N[C@H]3CCC[C@@H](C)NC3=O)=C[C@H](O)[C@@H]2O)C(N)=O)O[C@H]1n1ccc(=O)[nH]c1=O | 1 (≈ 1.38 µM) | 2 (≈ 2.76 µM) | 50 (≈ 68.9 µM) | 276 | 0.25 (≈ 0.344 µM) | – |
| CCCCCCCCCCCCCCC(=O)O[C@@H]1[C@H](OC)[C@@H]([C@@H](O[C@H]2OC(C(=O)N[C@H]3CCC[C@@H](C)NC3=O)=C[C@H](O)[C@@H]2O)C(N)=O)O[C@H]1n1ccc(=O)[nH]c1=O | 0.25 (≈ 0.309 µM) | 4 (≈ 4.95 µM) | 6.25 (≈ 7.74 µM) | 2970 | 0.125 (≈ 0.155 µM) | – |
| CCCCCCCCOC(=O)O[C@@H]1[C@H](OC)[C@@H]([C@@H](O[C@H]2OC(C(=O)N[C@H]3CCC[C@@H](C)NC3=O)=C[C@H](O)[C@@H]2O)C(N)=O)O[C@H]1n1ccc(=O)[nH]c1=O | 0.5 (≈ 0.676 µM) | 2 (≈ 2.7 µM) | 25 (≈ 33.8 µM) | 676 | 0.25 (≈ 0.338 µM) | – |
| CCCCCCCCCC(=O)O[C@@H]1[C@H](OC)[C@@H]([C@@H](O[C@H]2OC(C(=O)N[C@H]3CCCCNC3=O)=C[C@H](O)[C@@H]2O)C(N)=O)O[C@H]1n1ccc(=O)[nH]c1=O | 0.25 (≈ 0.345 µM) | 1 (≈ 1.38 µM) | 12.5 (≈ 17.3 µM) | – | 0.5 (≈ 0.691 µM) | 414 |
| CCCCCO[C@@H]1[C@H](OC)[C@@H]([C@@H](O[C@H]2OC(C(=O)N[C@H]3CCC[C@@H](C)NC3=O)=C[C@H](O)[C@@H]2O)C(N)=O)O[C@H]1n1ccc(=O)[nH]c1=O | 4 (≈ 6.12 µM) | > 32 | 100 (≈ 153 µM) | 76.5 | > 32 | – |
| CCCCCCCCCC(=O)O[C@@H]1[C@H](OC)[C@@H]([C@@H](O[C@H]2OC(C(=O)Nc3ccccc3)=C[C@H](O)[C@@H]2O)C(N)=O)O[C@H]1n1ccc(=O)[nH]c1=O | 1 (≈ 1.45 µM) | 2 (≈ 2.9 µM) | 6.25 (≈ 9.07 µM) | 2760 | 0.5 (≈ 0.726 µM) | – |
| CCCCCCC(=O)O[C@@H]1[C@H](OC)[C@@H]([C@@H](O[C@H]2OC(C(=O)N[C@H]3CCCCNC3=O)=C[C@H](O)[C@@H]2O)C(N)=O)O[C@H]1n1ccc(=O)[nH]c1=O | – | – | 25 (≈ 36.7 µM) | – | – | 58.7 |
| CCCCC(=O)O[C@@H]1[C@H](OC)[C@@H]([C@@H](O[C@H]2OC(C(=O)N[C@H]3CCC[C@@H](C)NC3=O)=C[C@H](O)[C@@H]2O)C(N)=O)O[C@H]1n1ccc(=O)[nH]c1=O | 2 (≈ 3 µM) | 16 (≈ 24 µM) | 100 (≈ 150 µM) | 35.9 | 32 (≈ 47.9 µM) | – |
| CCCCCCCCC(=O)O[C@@H]1[C@H](OC)[C@@H]([C@@H](O[C@H]2OC(C(=O)Nc3ccccc3)=C[C@H](O)[C@@H]2O)C(N)=O)O[C@H]1n1ccc(=O)[nH]c1=O | 1 (≈ 1.48 µM) | 1 (≈ 1.48 µM) | 12.5 (≈ 18.5 µM) | 1040 | 0.25 (≈ 0.371 µM) | – |
| CCCCCCCCCCCC(=O)O[C@@H]1[C@H](OC)[C@@H]([C@@H](O[C@H]2OC(C(=O)N[C@H]3CCC[C@@H](C)NC3=O)=C[C@H](O)[C@@H]2O)C(N)=O)O[C@H]1n1ccc(=O)[nH]c1=O | < 0.063 | 0.5 (≈ 0.653 µM) | 1.56 (≈ 2.04 µM) | 2870 | < 0.063 | – |
| CCCCCCCCCCCC(=O)O[C@@H]1[C@H](OC)[C@@H]([C@@H](O[C@H]2OC(C(=O)Nc3ccccc3)=C[C@H](O)[C@@H]2O)C(N)=O)O[C@H]1n1ccc(=O)[nH]c1=O | 4 (≈ 5.58 µM) | 8 (≈ 11.2 µM) | 6.25 (≈ 8.72 µM) | > 3490 | 1 (≈ 1.4 µM) | – |
| CCCCCCCCCCCCCCCCOC(=O)O[C@@H]1[C@H](OC)[C@@H]([C@@H](O[C@H]2OC(C(=O)N[C@H]3CCC[C@@H](C)NC3=O)=C[C@H](O)[C@@H]2O)C(N)=O)O[C@H]1n1ccc(=O)[nH]c1=O | 2 (≈ 2.35 µM) | 8 (≈ 9.39 µM) | > 100 | > 2930 | 0.5 (≈ 0.587 µM) | – |
| CCCCCCCCC(=O)O[C@@H]1[C@H](OC)[C@@H]([C@@H](O[C@H]2OC(C(=O)N[C@H]3CCCCNC3=O)=C[C@H](O)[C@@H]2O)C(N)=O)O[C@H]1n1ccc(=O)[nH]c1=O | – | – | 12.5 (≈ 17.6 µM) | – | – | 254 |
| CCCCCCCCO[C@@H]1[C@H](OC)[C@@H]([C@@H](O[C@H]2OC(C(=O)N[C@H]3CCC[C@@H](C)NC3=O)=C[C@H](O)[C@@H]2O)C(N)=O)O[C@H]1n1ccc(=O)[nH]c1=O | 2 (≈ 2.87 µM) | > 32 | 50 (≈ 71.9 µM) | 216 | 16 (≈ 23 µM) | – |
| CCCCCCCCCCCCCCCCCC(=O)O[C@@H]1[C@H](OC)[C@@H]([C@@H](O[C@H]2OC(C(=O)N[C@H]3CCC[C@@H](C)NC3=O)=C[C@H](O)[C@@H]2O)C(N)=O)O[C@H]1n1ccc(=O)[nH]c1=O | – | – | > 100 | 9410 | – | – |
| CCCCCCC(=O)O[C@@H]1[C@H](OC)[C@@H]([C@@H](O[C@H]2OC(C(=O)Nc3ccccc3)=C[C@H](O)[C@@H]2O)C(N)=O)O[C@H]1n1ccc(=O)[nH]c1=O | 1 (≈ 1.55 µM) | 0.5 (≈ 0.773 µM) | 25 (≈ 38.7 µM) | 371 | 0.5 (≈ 0.773 µM) | – |
| CCCCCC(=O)O[C@@H]1[C@H](OC)[C@@H]([C@@H](O[C@H]2OC(C(=O)N[C@H]3CCC[C@@H](C)NC3=O)=C[C@H](O)[C@@H]2O)C(N)=O)O[C@H]1n1ccc(=O)[nH]c1=O | 2 (≈ 2.93 µM) | 2 (≈ 2.93 µM) | 50 (≈ 73.3 µM) | 63.1 | 16 (≈ 23.5 µM) | – |
